Experimental data as given in patent publication US20100041089A1, “IMPROVED METHOD FOR DETECTING CHEMICAL […]” (priority 2006, published 2010).

Tested on: yeast genes (expressed mRNA)
Assay: DNA chip measurement of expressed mRNA of yeast genes after culture with a toxic chemical substance
Format: cell-based, Saccharomyces cerevisiae S288C
Details: for level of expressed mRNA in the presence of chemical substance / level in the absence of chemical substance: cultured two hours with the chemical substance; for The level of expressed mRNA in the presence of chemical substance/The level of expressed mRNA in the absence of chemical substance: cultured two hours with substance
Outline: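 Each expression value is the mRNA level in chemical-treated yeast divided by that in untreated yeast, from Cy3/Cy5 fluorescence on a whole-genome chip. Log-phase S288C cells in YPD at 25° C had received a sublethal, growth-inhibiting dose for two hours. Intensity denotes control expression relative to the all-gene mean.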

[Cl][Hg][Cl] [(3), HgCl2]
level of expressed mRNA in the presence of chemical substance / level in the absence of chemical substance (yeast gene YDR128W): 1.4
level of expressed mRNA in the presence of chemical substance / level in the absence of chemical substance (yeast gene YDR133C): 2.9
level of expressed mRNA in the presence of chemical substance / level in the absence of chemical substance (yeast gene YDR250C): 0.9
level of expressed mRNA in the presence of chemical substance / level in the absence of chemical substance (yeast gene YDR278C): 0.9
level of expressed mRNA in the presence of chemical substance / level in the absence of chemical substance (yeast gene YDR281C): 0.4
The level of expressed mRNA in the presence of chemical substance/The level of expressed mRNA in the absence of chemical substance (yeast gene YDR330W): 1.2
level of expressed mRNA in the presence of chemical substance / level in the absence of chemical substance (yeast gene YDR366C): 0.8
The level of expressed mRNA in the presence of chemical substance/The level of expressed mRNA in the absence of chemical substance (yeast gene YDR411C): 1.8
The level of expressed mRNA in the presence of chemical substance/The level of expressed mRNA in the absence of chemical substance (yeast gene YDR511W): 0.9
The level of expressed mRNA in the presence of chemical substance/The level of expressed mRNA in the absence of chemical substance (yeast gene YDR545W): 0.6
The level of expressed mRNA in the presence of chemical substance/The level of expressed mRNA in the absence of chemical substance (yeast gene YEL001C): 1.4
The level of expressed mRNA in the presence of chemical substance/The level of expressed mRNA in the absence of chemical substance (yeast gene YER004W): 1.9
The level of expressed mRNA in the presence of chemical substance/The level of expressed mRNA in the absence of chemical substance (yeast gene YER035W): 1.6
The level of expressed mRNA in the presence of chemical substance/The level of expressed mRNA in the absence of chemical substance (yeast gene YER079W): 1.9
The level of expressed mRNA in the presence of chemical substance/The level of expressed mRNA in the absence of chemical substance (yeast gene YER106W): 1.3
The level of expressed mRNA in the presence of chemical substance/The level of expressed mRNA in the absence of chemical substance (yeast gene YER158C): 0.9
The level of expressed mRNA in the presence of chemical substance/The level of expressed mRNA in the absence of chemical substance (yeast gene YER163C): 1.2
The level of expressed mRNA in the presence of chemical substance/The level of expressed mRNA in the absence of chemical substance (yeast gene YER175C): 1.3
The level of expressed mRNA in the presence of chemical substance/The level of expressed mRNA in the absence of chemical substance (yeast gene YFL006W): 1.6
The level of expressed mRNA in the presence of chemical substance/The level of expressed mRNA in the absence of chemical substance (yeast gene YFL010C): 1.3
The level of expressed mRNA in the presence of chemical substance/The level of expressed mRNA in the absence of chemical substance (yeast gene YFL024C): 1.1
The level of expressed mRNA in the presence of chemical substance/The level of expressed mRNA in the absence of chemical substance (yeast gene YFL032W): 1.6
level of expressed mRNA in the presence of chemical substance / level in the absence of chemical substance (yeast gene YFR026C): 1.0
The level of expressed mRNA in the presence of chemical substance/The level of expressed mRNA in the absence of chemical substance (yeast gene YGL037C): 6.5
The level of expressed mRNA in the presence of chemical substance/The level of expressed mRNA in the absence of chemical substance (yeast gene YGL047W): 1.6
The level of expressed mRNA in the presence of chemical substance/The level of expressed mRNA in the absence of chemical substance (yeast gene YGL053W): 1.2
level of expressed mRNA in the presence of chemical substance / level in the absence of chemical substance (yeast gene YGL088W): 0.9
The level of expressed mRNA in the presence of chemical substance/The level of expressed mRNA in the absence of chemical substance (yeast gene YGL121C): 1.4
The level of expressed mRNA in the presence of chemical substance/The level of expressed mRNA in the absence of chemical substance (yeast gene YGL199C): 1.7
level of expressed mRNA in the presence of chemical substance / level in the absence of chemical substance (yeast gene YGR038W): 3.5
The level of expressed mRNA in the presence of chemical substance/The level of expressed mRNA in the absence of chemical substance (yeast gene YGR101W): 1.2
The level of expressed mRNA in the presence of chemical substance/The level of expressed mRNA in the absence of chemical substance (yeast gene YGR110W): 2.2
The level of expressed mRNA in the presence of chemical substance/The level of expressed mRNA in the absence of chemical substance (yeast gene YGR130C): 0.6
level of expressed mRNA in the presence of chemical substance / level in the absence of chemical substance (yeast gene YGR139W): 0.8
The level of expressed mRNA in the presence of chemical substance/The level of expressed mRNA in the absence of chemical substance (yeast gene YGR154C): 2.2
The level of expressed mRNA in the presence of chemical substance/The level of expressed mRNA in the absence of chemical substance (yeast gene YGR221C): 0.9
level of expressed mRNA in the presence of chemical substance / level in the absence of chemical substance (yeast gene YGR243W): 9.4
level of expressed mRNA in the presence of chemical substance / level in the absence of chemical substance (yeast gene YGR293C): 1.6
level of expressed mRNA in the presence of chemical substance / level in the absence of chemical substance (yeast gene YHL006C): 0.9
level of expressed mRNA in the presence of chemical substance / level in the absence of chemical substance (yeast gene YHR095W): 1.5
level of expressed mRNA in the presence of chemical substance / level in the absence of chemical substance (yeast gene YHR105W): 2.4
The level of expressed mRNA in the presence of chemical substance/The level of expressed mRNA in the absence of chemical substance (yeast gene YHR138C): 2.2
level of expressed mRNA in the presence of chemical substance / level in the absence of chemical substance (yeast gene YHR181W): 2.4
The level of expressed mRNA in the presence of chemical substance/The level of expressed mRNA in the absence of chemical substance (yeast gene YHR199C): 3.2
The level of expressed mRNA in the presence of chemical substance/The level of expressed mRNA in the absence of chemical substance (yeast gene YIL023C): 2.1
The level of expressed mRNA in the presence of chemical substance/The level of expressed mRNA in the absence of chemical substance (yeast gene YIL041W): 2.1
The level of expressed mRNA in the presence of chemical substance/The level of expressed mRNA in the absence of chemical substance (yeast gene YIL087C): 3.4
level of expressed mRNA in the presence of chemical substance / level in the absence of chemical substance (yeast gene YIL127C): 0.2
level of expressed mRNA in the presence of chemical substance / level in the absence of chemical substance (yeast gene YJL017W): 3.5
level of expressed mRNA in the presence of chemical substance / level in the absence of chemical substance (yeast gene YJL037W): 1.4
The level of expressed mRNA in the presence of chemical substance/The level of expressed mRNA in the absence of chemical substance (yeast gene YJL057C): 1.6
The level of expressed mRNA in the presence of chemical substance/The level of expressed mRNA in the absence of chemical substance (yeast gene YJL066C): 1.2
The level of expressed mRNA in the presence of chemical substance/The level of expressed mRNA in the absence of chemical substance (yeast gene YJL082W): 2.4
